Values quoted from earlier work, collected in patent US20070260203A1, “Vasoactive agent intraocular implant” (ALLERGAN, INC., priority 2006, published 2007).
Read-outs that look alike come from different tables or passages of the source.

Tests used:
[1] = biological target: T1, endothelin-A receptor (Homo sapiens, UniProt P25101); details: competitive antagonist of both ETA and ETB
T1 sequence (P25101 21-427): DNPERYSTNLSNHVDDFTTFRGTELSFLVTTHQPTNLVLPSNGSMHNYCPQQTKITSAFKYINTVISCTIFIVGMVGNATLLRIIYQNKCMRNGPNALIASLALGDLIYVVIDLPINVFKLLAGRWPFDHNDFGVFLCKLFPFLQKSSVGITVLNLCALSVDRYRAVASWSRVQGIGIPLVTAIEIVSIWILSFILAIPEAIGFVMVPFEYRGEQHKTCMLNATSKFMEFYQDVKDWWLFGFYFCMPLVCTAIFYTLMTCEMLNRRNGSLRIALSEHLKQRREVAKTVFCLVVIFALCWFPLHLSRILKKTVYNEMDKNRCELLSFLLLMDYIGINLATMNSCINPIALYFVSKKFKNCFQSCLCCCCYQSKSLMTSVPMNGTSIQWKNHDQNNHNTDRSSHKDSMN

In the case of `COc1ccccc1Oc1c(NS(=O)(=O)c2ccc(C(C)(C)C)cc2)nc(-c2ncccn2)nc1OCCO` [Bosentan], the effective concentration (endothelin receptor antagonist, Giersbergen et al. 2005) is given as 0.3 to 3 µg/mL and the “affinity for the ETA receptor relative to ETB receptor” value [1] is given as “slightly higher affinity”.

For `CC[C@@H]1C(=O)OC[C@@H]1Cc1cncn1C` [pilocarpine], the effective concentration (Yoshitomi et al. 2000, rabbit ciliary artery) is given as 1 to 10 µM.
